Test results as given in patent US20120149718A1, “Amido Compounds” (priority 2010, published 2012).

What follows are compounds tested against T1, human P2X7 (Homo sapiens, UniProt Q99572) (assay: Intracellular Calcium Flux (FLIPR) Assay). Details: 1321N1 cells stably expressing full length human P2X7; agonist 100 μM BzATP; fluo-3 calcium flux; read-out: FLIPR pIC50 hP2X7-1321n1 (converted).
T1 construct: 1321N1 cells stably expressing the full length human P2X7 gene (1321N1-hP2X7)
T1 sequence (Q99572 1-595): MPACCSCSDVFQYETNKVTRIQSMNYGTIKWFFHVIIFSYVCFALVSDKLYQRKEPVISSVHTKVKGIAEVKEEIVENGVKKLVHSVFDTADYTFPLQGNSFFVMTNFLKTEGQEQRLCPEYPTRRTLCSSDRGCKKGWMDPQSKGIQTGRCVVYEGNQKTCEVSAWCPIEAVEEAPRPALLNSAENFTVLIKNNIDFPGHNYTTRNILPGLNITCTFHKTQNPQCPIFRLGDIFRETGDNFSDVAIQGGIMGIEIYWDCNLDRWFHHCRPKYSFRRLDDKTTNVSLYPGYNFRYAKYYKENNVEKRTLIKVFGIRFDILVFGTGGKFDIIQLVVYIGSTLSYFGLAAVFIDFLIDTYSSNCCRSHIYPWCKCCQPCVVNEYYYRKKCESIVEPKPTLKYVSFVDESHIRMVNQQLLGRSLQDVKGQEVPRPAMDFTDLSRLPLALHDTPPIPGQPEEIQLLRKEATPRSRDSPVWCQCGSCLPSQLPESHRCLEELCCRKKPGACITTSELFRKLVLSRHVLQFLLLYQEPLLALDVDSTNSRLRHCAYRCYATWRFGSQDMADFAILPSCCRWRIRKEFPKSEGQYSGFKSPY
Format: cell-based
Protocol: Stock solutions of compounds were prepared from powders as a 10 mM DMSO stock solution. These solutions were stored at RT during the two week period of these experiments to prevent freeze-thaw of the DMSO stocks. The DMSO stocks were added to the appropriate assay buffer at a concentration of 10 μM, and then diluted serially to the final concentrations that were tested. No observable precipitate was formed at any time during this process. The aqueous solutions of compounds as well as ATP (Sigma A7699) and BzATP (Sigma B6396) were prepared fresh for each day of experiment.
1321N1 cells stably expressing the full length human P2X7 gene (1321N1-hP2X7) and HEK293 cells stably expressing the full length rat P2X7 gene (HEK293-rP2X7) were obtained from the Roche Cell Culture Facility. 1321N1-hP2X7 cells were grown in Dulbecco's Modified Eagle's Medium (DMEM) high glucose supplemented with 10% FBS and 250 μg/mL G418. HEK293-rP2X7 cells were grown in DMEM/F-12 supplemented with 10% FBS, 1 mM CaCl2, 2 mM MgCl2, 2 mM L-Glutamine and 500 μg/ml G418. Cells were split such that they never became >70% confluent.
On the day prior to the experiment, 1321N1-hP2X7 or HEK293-rP2X7 cells were released into suspension with calcium-free PBS+Versene and washed by centrifugation with calcium-free PBS to remove the Versene. Cells were resuspended in growth medium at a density of 2.5×10^5 cells/mL and seeded into black walled, clear bottom 96 well plates (50,000 cells/well) approximately 18 hr prior to intracellular calcium flux experiments.
On the day of the experiment, plates were washed with FLIPR buffer (calcium- and magnesium-free Hank's Balanced Salt Solution (HBSS) supplemented with 10 mM Hepes, 2.5 mM probenecid and 2 mM calcium chloride) using a BIO-TEK 96 channel plate washer and incubated with […] fluo-3 dye at 37° C. for one hr. The dye was then removed by plate washing and the cells were allowed to equilibrate for 20 min at room temperature with antagonist or vehicle (FLIPR buffer). Agonist (100 μM BzATP final concentration for hP2X7; 5 μM BzATP final concentration or rP2X7) was added online with the FLIPR and fluorescence measurements made at 1 sec intervals for 60 sec followed by 3 sec intervals for a further 4 min (5 min total). A final addition of 5 μM ionomycin was made and the maximal BzATP-evoked fluorescence normalized to the maximal ionomycin-evoked fluorescence.
Work on Cc1ccccc1C[C@H](C(=O)Nc1nc2ccccc2o1)c1ccc(S(C)(=O)=O)cc1 [Compound I-10, (S)—N-Benzooxazol-2-yl-2-(4-methanesulfonyl-phenyl)-3-o-tolyl-propionamide] yielded an IC50 of 427 nM.
With Cc1ccccc1C[C@@H](C(=O)Nc1nc2ccccc2o1)c1ccc(S(C)(=O)=O)cc1 [Compound I-11, (R)—N-Benzooxazol-2-yl-2-(4-methanesulfonyl-phenyl)-3-o-tolyl-propionamide] the IC50 was 81.3 nM.
In the case of CS(=O)(=O)c1ccc(C(Cc2ccc(F)cc2)C(=O)Nc2cnc(Br)cn2)cc1 (centres unmarked) [Compound I-13, N-(5-Bromo-pyrazin-2-yl)-3-(4-fluoro-phenyl)-2-(4-methanesulfonyl-phenyl)-propionamide], the IC50 was 813 nM.
In the case of CS(=O)(=O)c1ccc(C(Cc2ccc(F)cc2)C(=O)Nc2cnc(CO)cn2)cc1 (centres unmarked) [Compound I-16, 3-(4-Fluoro-phenyl)-N-(5-hydroxymethyl-pyrazin-2-yl)-2-(4-methanesulfonyl-phenyl)-propionamide], the IC50 was 117 nM.
Work on CC(C)(O)c1cnc(NC(=O)C(Cc2ccc(F)cc2)c2ccc(S(C)(=O)=O)cc2)cn1 (centres unmarked) [Compound I-17, 3-(4-Fluoro-phenyl)-N-[5-(1-hydroxy-1-methyl-ethyl)-pyrazin-2-yl]-2-(4-methanesulfonyl-phenyl)-propionamide] yielded an IC50 of 1070 nM.
For COCCN(C)Cc1cnc(NC(=O)C(Cc2ccc(F)cc2)c2ccc(S(C)(=O)=O)cc2)cn1 (centres unmarked) [Compound I-23, 3-(4-Fluoro-phenyl)-2-(4-methanesulfonyl-phenyl)-N-(5-{[(2-methoxy-ethyl)-methyl-amino]-methyl}-pyrazin-2-yl)-propionamide], the IC50 was 646 nM.
In the case of CN(Cc1ccccc1)Cc1cnc(NC(=O)C(Cc2ccc(F)cc2)c2ccc(S(C)(=O)=O)cc2)cn1 (centres unmarked) [Compound I-24, N-{5-[(Benzyl-methyl-amino)-methyl]-pyrazin-2-yl}-3-(4-fluoro-phenyl)-2-(4-methanesulfonyl-phenyl)-propionamide], the IC50 was 1050 nM.
In the case of Cc1cc(S(C)(=O)=O)ccc1C(Cc1ccc(F)cc1)C(=O)Nc1nc2ccccc2o1 (centres unmarked) [Compound I-27, N-Benzooxazol-2-yl-3-(4-fluoro-phenyl)-2-(4-methanesulfonyl-2-methyl-phenyl)-propionamide], the IC50 was 204 nM.
With O=C(Nc1nc2ccccc2o1)C(Cc1ccc(F)cc1)c1ccc(F)cc1 (centres unmarked) [Compound I-28, N-Benzooxazol-2-yl-2,3-bis-(4-fluoro-phenyl)-propionamide] the IC50 was 437 nM.
With Cc1cccc2oc(NC(=O)C(Cc3ccc(F)cc3)c3ccc(S(C)(=O)=O)cc3)nc12 (centres unmarked) [Compound I-35, 3-(4-Fluoro-phenyl)-2-(4-methanesulfonyl-phenyl)-N-(4-methyl-benzooxazol-2-yl)-propionamide] the IC50 was 468 nM.
Cc1ccc2nc(NC(=O)C(Cc3ccc(F)cc3)c3ccc(S(C)(=O)=O)cc3)oc2c1 (centres unmarked) [Compound I-36, 3-(4-Fluoro-phenyl)-2-(4-methanesulfonyl-phenyl)-N-(6-methyl-benzooxazol-2-yl)-propionamide] showed an IC50 of 191 nM.
Work on Cc1ccc2oc(NC(=O)C(Cc3ccc(F)cc3)c3ccc(S(C)(=O)=O)cc3)nc2c1 (centres unmarked) [Compound I-37, 3-(4-Fluoro-phenyl)-2-(4-methanesulfonyl-phenyl)-N-(5-methyl-benzooxazol-2-yl)-propionamide] yielded an IC50 of 166 nM.
CS(=O)(=O)c1ccc(C(Cc2ccc(F)cc2)C(=O)Nc2nc3ccc(Cl)cc3o2)cc1 (centres unmarked) [Compound I-38, N-(6-Chloro-benzooxazol-2-yl)-3-(4-fluoro-phenyl)-2-(4-methanesulfonyl-phenyl)-propionamide] was tested, and the IC50 was 316 nM.
In the case of CS(=O)(=O)c1ccc(C(Cc2ccc(F)cc2)C(=O)Nc2nc3cc(Cl)ccc3o2)cc1 (centres unmarked) [Compound I-39, N-(5-Chloro-benzooxazol-2-yl)-3-(4-fluoro-phenyl)-2-(4-methanesulfonyl-phenyl)-propionamide], the IC50 was 126 nM.
CS(=O)(=O)c1ccc(C(Cc2ccc(F)cc2)C(=O)Nc2nc3ccc(F)cc3o2)cc1 (centres unmarked) [Compound I-40, N-(6-Fluoro-benzooxazol-2-yl)-3-(4-fluoro-phenyl)-2-(4-methanesulfonyl-phenyl)-propionamide] showed an IC50 of 38.9 nM.
Work on CS(=O)(=O)c1ccc(C(Cc2ccc(F)cc2)C(=O)Nc2nc3cc(C(F)(F)F)ccc3o2)cc1 (centres unmarked) [Compound I-41, 3-(4-Fluoro-phenyl)-2-(4-methanesulfonyl-phenyl)-N-(5-trifluoromethyl-benzooxazol-2-yl)-propionamide] yielded an IC50 of 115 nM.
Compound Cc1cccc2nc(NC(=O)C(Cc3ccc(F)cc3)c3ccc(S(C)(=O)=O)cc3)oc12 (centres unmarked) [Compound I-42, 3-(4-Fluoro-phenyl)-2-(4-methanesulfonyl-phenyl)-N-(7-methyl-benzooxazol-2-yl)-propionamide] has an IC50 of 28.8 nM.
In the case of Cc1cc(C)c2oc(NC(=O)C(Cc3ccc(F)cc3)c3ccc(S(C)(=O)=O)cc3)nc2c1 (centres unmarked) [Compound I-43, N-(5,7-Dimethyl-benzooxazol-2-yl)-3-(4-fluoro-phenyl)-2-(4-methanesulfonyl-phenyl)-propionamide], the IC50 was 102 nM.
For COc1ccc2oc(NC(=O)C(Cc3ccc(F)cc3)c3ccc(S(C)(=O)=O)cc3)nc2c1 (centres unmarked) [Compound I-44, 3-(4-Fluoro-phenyl)-2-(4-methanesulfonyl-phenyl)-N-(5-methoxy-benzooxazol-2-yl)-propionamide], the IC50 was 75.9 nM.
COC(=O)c1ccc2nc(NC(=O)C(Cc3ccc(F)cc3)c3ccc(S(C)(=O)=O)cc3)oc2c1 (centres unmarked) [Compound I-45, 2-[3-(4-Fluoro-phenyl)-2-(4-methanesulfonyl-phenyl)-propionylamino]-benzooxazole-6-carboxylic acid methyl ester] showed an IC50 of 617 nM.
CS(=O)(=O)c1ccc(C(Cc2ccc(F)cc2)C(=O)Nc2nc3cc(F)ccc3o2)cc1 (centres unmarked) [Compound I-46, N-(5-Fluoro-benzooxazol-2-yl)-3-(4-fluoro-phenyl)-2-(4-methanesulfonyl-phenyl)-propionamide] showed an IC50 of 44.7 nM.
CS(=O)(=O)c1ccc(C(Cc2ccc(F)cc2)C(=O)Nc2nc3cc(S(=O)(=O)N4CCCC4)ccc3o2)cc1 (centres unmarked) [Compound I-47, 3-(4-Fluoro-phenyl)-2-(4-methanesulfonyl-phenyl)-N-[5-(pyrrolidine-1-sulfonyl)-benzooxazol-2-yl]-propionamide] gave an IC50 of 170 nM.
With CS(=O)(=O)c1ccc(C(Cc2ccc(F)cc2)C(=O)Nc2ncc(-c3ccccc3)o2)cc1 (centres unmarked) [Compound I-48, 3-(4-Fluoro-phenyl)-2-(4-methanesulfonyl-phenyl)-N-(5-phenyl-oxazol-2-yl)-propionamide] the IC50 was 295 nM.
CC(=O)OCc1cnc(NC(=O)C(Cc2ccc(F)cc2)c2ccc(S(C)(=O)=O)cc2)cn1 (centres unmarked) [Compound I-49, Acetic acid 5-[3-(4-fluoro-phenyl)-2-(4-methanesulfonyl-phenyl)-propionylamino]-pyrazin-2-ylmethyl ester] was tested, and the IC50 was 871 nM.
Compound CS(=O)(=O)c1ccc([C@@H](Cc2ccc(F)cc2)C(=O)Nc2cnc(CO)cn2)cc1 [Compound I-50a, (R)-3-(4-Fluoro-phenyl)-N-(5-hydroxymethyl-pyrazin-2-yl)-2-(4-methanesulfonyl-phenyl)-propionamide] has an IC50 of 380 nM.
With CS(=O)(=O)c1ccc([C@H](Cc2ccc(F)cc2)C(=O)Nc2cnc(CO)cn2)cc1 [Compound I-50b, (S)-3-(4-Fluoro-phenyl)-N-(5-hydroxymethyl-pyrazin-2-yl)-2-(4-methanesulfonyl-phenyl)-propionamide] the IC50 was over 10000 nM.
